Results on four compounds are retold here after PMC11067750, “Biophysical and structural study of La Crosse virus endonuclease inhibition for the development of new antiviral options” (IUCrJ, 2024).

Several values for one entry are separate records, joined by “and”; a condition that tells them apart may be missing. Identical values can stand only once. Like-named read-outs stand apart in the source and are kept apart here.

Assay [1] has as its target T1, LACV EndoN (Bunyavirus La Crosse, UniProt A5HC98). The experiment in a line: In vitro endonuclease FRET assay. Format: biochemical, La Crosse virus. As to conditions: for fold greater inhibition efficiency than DPBA: ratio of IC50 values versus DPBA. The protocol:
An in vitro endonuclease assay was used to investigate the inhibition of LACV EndoN by DPBA, L-742,001 and baloxavir. The reaction was conducted using a 20 µl sample in 20 mM Tris pH 7.6, 150 mM NaCl, 0.01% Tween 20, 1 mM DTT and was supplemented with 1 mM freshly prepared MnCl2. The 19-mer RNA at a concentration of 50 nM and a gradient concentration of inhibitor (from 0.004 to 100 µM) were pre-incubated at 25°C in the reaction buffer. The reaction was started upon the addition of LACV EndoN (pre-mixed with 1 mM MnCl2 and pre-incubated at 25°C for 5 min) at a final concentration of 0.25 µM. Fluorescence upon RNA cleavage was followed in a PHERAstar FSX microplate reader (BMG Labtech, Germany) at 25°C using wavelengths of 465 nm for excitation and 520 nm for emission.
The inhibition efficacies of the three ligands were tested against LACV EndoN in an endonuclease FRET assay and the results are summarized in Table 2 ▸. This was performed following the cleavage of a 19-mer RNA labelled with a 5′ fluorescent probe (6-FAM) and a 3′ quencher (BHQ1) in the presence of a range of ligand concentrations upon the addition of 0.25 µM LACV EndoN. In this FRET inhibition assay, the order in which the three partners of the catalytic complex (protein, ions and substrate RNA) are introduced is decisive. The reaction is triggered by adding the protein pre-incubated with ions to a mixture containing substrate RNA, ions and ligand. The design of the assay may constitute a limitation to the complete assessment of the binding efficiency of baloxavir to the enzyme, given the competition between substrate RNA, free ions and ligand. As described for FLUV, baloxavir is a tight-binding inhibitor with slow dissociation and acts by preventing binding of the RNA substrate (Omoto et al., 2018[▸]; Todd et al., 2021[▸]). In the context of the current biochemical assay, the interplay between the RNA substrate and the ligand presents an unfavourable scenario for binding of the metal-chelating ligand. […] This unexpected uniformity of the inhibition values underscores the remarkable potency of these compounds in the face of a challenging biochemical landscape.
Target sequence in this assay (A5HC98 1-185): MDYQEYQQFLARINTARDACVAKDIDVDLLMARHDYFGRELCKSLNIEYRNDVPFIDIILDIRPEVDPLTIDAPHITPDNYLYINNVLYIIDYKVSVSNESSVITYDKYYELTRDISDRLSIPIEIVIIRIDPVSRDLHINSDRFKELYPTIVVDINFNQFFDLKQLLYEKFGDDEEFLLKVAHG

Assay [2] has as its target T1, LACV EndoN. Format: binding, La Crosse virus. As to conditions: for Stability ΔT m: 50 µM compound, 5 µM protein, baseline LACV EndoN in the presence of manganese (T m ≃ 56°C); for greater stabilization compared with DPBA: difference in ΔT m versus DPBA, with 0.5 mM MnCl2. The protocol: The influence of compound binding on the stability of LACV EndoN was measured by a Thermofluor assay using a CFX Connect Bio-Rad real-time PCR machine at a protein concentration of 5 µM in a buffer consisting of 20 mM Tris–HCl pH 7.6, 150 mM NaCl, 2.5 mM β-mercaptoethanol supplemented with 0.5 mM freshly prepared MnCl2. The compound concentration was fixed at 50 µM (5% DMSO). In 96-well thin-walled PCR plates, 1 µl inhibitor was added to 17 µl buffer followed by the addition of 2 µl protein. Finally, 2 µl of the fluorescent dye SYPRO Orange (Thermo Fisher, catalog No. 4461146) was added (a fivefold final concentration). Controls were performed using the same protocol without MnCl2. The melting-temperature (T m) values given are the average and standard deviation of three independent experiments.
DSF is used to assess protein stabilization or destabilization upon the addition of cofactors by measuring the thermal stability (the thermal melting transition T m) arising from interaction with a fluorescent dye (SYPRO Orange) during denaturation.
(c) Structures of the studied ligands.
Target sequence in this assay (A5HC98 1-183): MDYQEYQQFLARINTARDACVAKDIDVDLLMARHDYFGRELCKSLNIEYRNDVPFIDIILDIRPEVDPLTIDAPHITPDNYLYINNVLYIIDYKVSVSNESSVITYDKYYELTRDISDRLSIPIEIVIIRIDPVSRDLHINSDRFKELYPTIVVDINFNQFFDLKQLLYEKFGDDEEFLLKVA

In assay [3] the target is T1, LACV EndoN. The experiment in a line: Microscale thermophoresis (MST) binding affinity. Also noted: species or system La Crosse virus. As to conditions: for Kd: Affinity K d, labelled protein 50 or 100 nM, 0.5 mM MnCl2, 5% DMSO, n = 3; for fold better affinity than DPBA: ratio of K d values versus DPBA. For orientation: Microscale thermophoresis detects binding through changes in fluorescence in a small temperature gradient.
Target sequence in this assay (A5HC98 1-185): as the sequence (A5HC98 1-185) above

The target of another assay is FLUV PA-Nter. Also noted: method as in DuBois et al., 2012. As to conditions: ref DuBois et al., 2012; cited from earlier work.
The target of a further assay is LCMV EndoN. To be noted: ref Saez-Ayala et al., 2018, 2019; cited from earlier work.

As to `O=C1c2c(O)c(=O)ccn2N([C@@H]2c3ccccc3SCc3c2ccc(F)c3F)[C@@H]2COCCN12` [Baloxavir, (R)-12-((S)-7,8-Difluoro-6,11-dihydrodibenzo[b,e]thiepin-11-yl)-7-hydroxy-3,4,12,12a-tetrahydro-1H-[1,4]oxazino[3,4-c]pyrido[2,1-f][1,2,4]triazine-6,8-dione], on LACV EndoN [1], it took 340 ± 20 nM to reach half-maximal inhibition (IC50) and the “fold greater inhibition efficiency than DPBA” value is given as “threefold”. Also, the “Stability ΔT m” value on LACV EndoN [2] (0.5 mM MnCl2) was “+12.72 ± 0.18 °C”. In addition, on LACV EndoN [2] (0.5 mM MnCl2, listed as baloxavir), the “Stability ΔT m” value was about 13 °C. In addition, the “greater stabilization compared with DPBA” value on LACV EndoN [2] was “+6 °C”. Further, at LACV EndoN [3], the Kd (in general, the equilibrium constant for the complex coming apart) worked out at 19 ± 6 nM and the “fold better affinity than DPBA” value is 68 fold.

`O=C(O)C(=O)CC(=O)c1ccccc1` [DPBA, 2,4-Dioxo-4-phenylbutanoic acid]: 990 ± 60 nM corresponded to half-maximal inhibition at LACV EndoN [1] (IC50). Besides, the Kd is 1350 ± 250 nM on LACV EndoN [3], 4500 nM on FLUV PA-Nter and 5400 nM on LCMV EndoN.

As for `O=C(O)/C(O)=C/C(=O)C1(Cc2ccc(Cl)cc2)CCN(Cc2ccccc2)CC1` [L-742,001, (Z)-4-{1-benzyl-4-[(4-chlorophenyl)methyl]-piperidin-4-yl}-2-hydroxy-4-oxobut-2-enoic acid], at LACV EndoN [1], the IC50 (in general, the point on the concentration scale where inhibition reaches its midpoint) was 650 ± 30 nM and the “fold greater inhibition efficiency than DPBA” value is given as 1.5 fold. In addition, at LACV EndoN [2], the “greater stabilization compared with DPBA” value was “+4 °C”. Besides, on LACV EndoN [3], the Kd is 600 nM and 614 nM; the “fold better affinity than DPBA” value was “twofold”.

As to `[Cl][Mn][Cl]` [MnCl2], the “T m increase upon addition of metal ions” value at LACV EndoN [2] (0.5 mM MnCl2, versus LACV EndoN without ions (T m of 49°C)) is about 7 °C.
